Measured values from the NIST ThermoML archive (doi:10.1021/je1005483).
Numbers after ± are expanded uncertainties.

Legend:
[1] = molar heat capacity at constant pressure; settings: 298.15 K; 101.3 kPa; Liquid; Flow calorimetry
[2] = 101.3 kPa, Liquid; for speed of sound: 298.15 K
[3] = xn = mol fraction of the nth substance listed; settings: 101.3 kPa, Liquid; for speed of sound: 298.15 K

CC1COC(=O)O1 (configuration not stated) [4-methyl-1,3-dioxolan-2-one]
Settings	molar heat capacity at constant pressure [J/K/mol]	speed of sound [m/s]
[1]	166.98 ± 1	–
[2]	–	1443 ± 2.9

[2]
Settings	mass density [kg/m3]
308.15 K	1188.73 ± 0.34
318.15 K	1179.31 ± 0.33

CC#N [acetonitrile] + CC(=O)N(C)C
Settings	speed of sound [m/s]
[3], x2 = 0	1279.6 ± 2.7

[3], x2 = 0
Settings	mass density [kg/m3]
308.15 K	765.735 ± 0.38
318.15 K	755.763 ± 0.39

CC#N [acetonitrile] + CC1COC(=O)O1
Settings	speed of sound [m/s]
[3], x2 = 0	1279.6 ± 2.7

[3], x2 = 0
Settings	mass density [kg/m3]
308.15 K	765.735 ± 0.38
318.15 K	755.763 ± 0.39

CC(=O)N(C)C [N,N-dimethylethanamide] + CC#N
[3]
Settings	speed of sound [m/s]
x1 = 0.04872	1286.5 ± 2.7
x1 = 0.1004	1297.5 ± 2.7
x1 = 0.1898	1315.5 ± 2.7
x1 = 0.2932	1336.4 ± 2.7
x1 = 0.4046	1357.3 ± 2.8
x1 = 0.503	1375.5 ± 2.8
x1 = 0.6044	1393.7 ± 2.8
x1 = 0.7074	1410.8 ± 2.9
x1 = 0.8048	1427.5 ± 2.9
x1 = 0.9035	1440 ± 2.9
x1 = 1	1458.7 ± 2.9

mass density [kg/m3], [3]
Settings	308.15 K	318.15 K
x1 = 0.00994	768.688 ± 0.37	–
x1 = 0.01091	–	759.018 ± 0.38
x1 = 0.02031	771.713 ± 0.37	–
x1 = 0.02054	–	761.841 ± 0.38
x1 = 0.03016	774.535 ± 0.36	–
x1 = 0.0309	–	764.83 ± 0.38
x1 = 0.04069	777.504 ± 0.36	–
x1 = 0.04289	–	768.228 ± 0.37
x1 = 0.05104	780.389 ± 0.36	–
x1 = 0.0529	–	771.009 ± 0.37
x1 = 0.05848	782.424 ± 0.36	–
x1 = 0.05906	–	772.711 ± 0.37
x1 = 0.06932	785.313 ± 0.35	–
x1 = 0.06978	–	775.606 ± 0.36
x1 = 0.08223	788.745 ± 0.35	–
x1 = 0.08535	–	779.778 ± 0.36
x1 = 0.08742	–	780.299 ± 0.36
x1 = 0.09057	790.902 ± 0.35	–
x1 = 0.1009	793.541 ± 0.34	–
x1 = 0.1022	–	784.094 ± 0.35
x1 = 0.1438	–	794.432 ± 0.34
x1 = 0.1497	805.533 ± 0.33	–
x1 = 0.1834	–	803.73 ± 0.33
x1 = 0.1884	814.49 ± 0.32	–
x1 = 0.2301	–	813.975 ± 0.32
x1 = 0.237	824.887 ± 0.31	–
x1 = 0.2935	–	826.829 ± 0.31
x1 = 0.3015	837.769 ± 0.3	–
x1 = 0.387	–	843.966 ± 0.29
x1 = 0.4044	856.101 ± 0.28	–
x1 = 0.503	–	862.53 ± 0.29
x1 = 0.5085	872.475 ± 0.27	–
x1 = 0.6026	–	876.476 ± 0.29
x1 = 0.6251	888.44 ± 0.25	–
x1 = 0.7047	–	889.23 ± 0.3
x1 = 0.7059	898.16 ± 0.23	–
x1 = 0.8034	908.919 ± 0.21	–
x1 = 0.8085	–	900.68 ± 0.32
x1 = 0.9024	918.675 ± 0.2	–
x1 = 0.909	–	910.546 ± 0.35
x1 = 0.9117	919.547 ± 0.2	–
x1 = 0.9144	–	911.049 ± 0.35
x1 = 0.9215	–	911.696 ± 0.21
x1 = 0.9216	920.459 ± 0.2	–
x1 = 0.932	–	912.659 ± 0.21
x1 = 0.9322	921.402 ± 0.2	–
x1 = 0.941	922.202 ± 0.2	–
x1 = 0.9414	–	913.506 ± 0.2
x1 = 0.9515	923.129 ± 0.2	–
x1 = 0.9546	–	914.681 ± 0.36
x1 = 0.9614	924 ± 0.2	–
x1 = 0.963	–	915.423 ± 0.36
x1 = 0.9712	924.844 ± 0.19	–
x1 = 0.9716	–	916.181 ± 0.2
x1 = 0.9809	–	916.988 ± 0.2
x1 = 0.9811	925.7 ± 0.19	–
x1 = 0.9893	926.398 ± 0.19	–
x1 = 0.9911	–	917.856 ± 0.37
x1 = 1	927.294 ± 0.19	918.616 ± 0.2

CC(=O)N(C)C [N,N-dimethylethanamide]
Settings	speed of sound [m/s]
[2]	1458.7 ± 2.9

[2]
Settings	mass density [kg/m3]
308.15 K	927.294 ± 0.19
318.15 K	918.616 ± 0.2

CC#N [acetonitrile]
Settings	speed of sound [m/s]
[2]	1279.6 ± 2.7

[2]
Settings	mass density [kg/m3]
308.15 K	765.735 ± 0.38
318.15 K	755.763 ± 0.39
